Test results reported in PubChem BioAssay (NCI).
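The concentration for 50% growth inhibition is given as GI50. TGI: total growth inhibition.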

Assays:
Assay in all cases: NCI anticancer screen, dose series, 384-well format
[1] = system: MCF7 breast
[2] = system: T-47D breast
[3] = system: UACC-62 melanoma
[4] = system: HL-60(TB) leukemia
[5] = system: HCC-2998 colon
[6] = system: PC-3 prostate
[7] = system: HOP-62 NSCLC
[8] = system: MOLT-4 leukemia
[9] = system: CAKI-1 renal
[10] = system: SW-620 colon
[11] = system: MALME-3M melanoma
[12] = system: IGROV1 ovarian
[13] = system: NCI-H226 lung
[14] = system: OVCAR-4 ovarian
[15] = system: MDA-MB-468 breast
[16] = system: BT-549 breast
[17] = system: SNB-19 CNS
[18] = system: SF-268 CNS
[19] = system: NCI-H522 lung
[20] = system: SK-MEL-2 melanoma
[21] = system: SF-295 CNS
[22] = system: 786-0 renal
[23] = system: U251 glioblastoma
[24] = system: SR leukemia
[25] = system: A498 renal
[26] = system: SK-MEL-5 melanoma
[27] = system: TK-10 renal
[28] = system: SF-539 CNS
[29] = system: LOX IMVI melanoma
[30] = system: DU-145 prostate
[31] = system: ACHN renal
[32] = system: OVCAR-5 ovarian
[33] = system: HS 578T breast
[34] = system: NCI-H23 lung
[35] = system: MDA-MB-231 breast
[36] = system: HCT-15 colon
[37] = system: RXF 393 renal
[38] = system: K-562 leukemia
[39] = system: EKVX NSCLC
[40] = system: M14 melanoma
[41] = system: SK-MEL-28 melanoma
[42] = system: KM12 colon
[43] = system: MDA-MB-435 melanoma
[44] = system: COLO 205 colon
[45] = system: SN12C renal
[46] = system: CCRF-CEM leukemia
[47] = system: SK-OV-3 ovarian

O=C(Nc1cccc(C(F)(F)F)c1)Nc1cc(S(=O)(=O)NC2CC2)ccc1-c1ccsc1
GI50 [1]: 3.68 µM
TGI [1]: 12.4 µM
GI50 [2]: 2.62 µM
TGI [2]: 8.35 µM
GI50 [3]: 7.26 µM
TGI [3]: 19.5 µM
GI50 [4]: 1.93 µM
TGI [4]: 3.52 µM
GI50 [5]: 5.7 µM
TGI [5]: 16.2 µM
GI50 [6]: 3.92 µM
TGI [6]: 13.3 µM
GI50 [7]: 3.98 µM
TGI [7]: 13.4 µM
GI50 [8]: 1.78 µM
TGI [8]: 3.35 µM
GI50 [9]: 3.59 µM
TGI [9]: 15.2 µM
GI50 [10]: 3.87 µM
TGI [10]: 13.9 µM
GI50 [11]: 6.91 µM
TGI [11]: 18.9 µM
GI50 [12]: 8.86 µM
TGI [12]: 21.7 µM
GI50 [13]: 4.75 µM
TGI [13]: 14.7 µM
GI50 [14]: 5.19 µM
TGI [14]: 17 µM
GI50 [15]: 1.96 µM
TGI [15]: 4.12 µM
GI50 [16]: 7.6 µM
TGI [16]: 19.8 µM
GI50 [17]: 4.51 µM
TGI [17]: 14.7 µM
GI50 [18]: 4.84 µM
TGI [18]: 14.4 µM
GI50 [19]: 2.69 µM
TGI [19]: 8.11 µM
GI50 [20]: 2.72 µM
TGI [20]: 6.07 µM
GI50 [21]: 2.96 µM
TGI [21]: 9.42 µM
GI50 [22]: 4.09 µM
TGI [22]: 14.3 µM
GI50 [23]: 3.43 µM
TGI [23]: 11.3 µM
GI50 [24]: 0.863 µM
TGI [24]: 2.19 µM
GI50 [25]: 2.86 µM
TGI [25]: 8.34 µM
GI50 [26]: 2.32 µM
TGI [26]: 5.61 µM
GI50 [27]: 3.96 µM
TGI [27]: 14.1 µM
GI50 [28]: 5.91 µM
TGI [28]: 15 µM
GI50 [29]: 4.08 µM
TGI [29]: 13.1 µM
GI50 [30]: 6.35 µM
TGI [30]: 16.4 µM
GI50 [31]: 3.25 µM
TGI [31]: 11.9 µM
GI50 [32]: 13.8 µM
TGI [32]: 26.8 µM
GI50 [33]: 2.87 µM
TGI [33]: 7.27 µM
GI50 [34]: 2.83 µM
TGI [34]: 8.74 µM
GI50 [35]: 10.6 µM
TGI [35]: 23 µM
GI50 [36]: 3.49 µM
TGI [36]: 12.5 µM
GI50 [37]: 3.28 µM
TGI [37]: 12.1 µM
GI50 [38]: 3.45 µM
TGI [38]: 11.5 µM
GI50 [39]: 4.79 µM
TGI [39]: 15.5 µM
GI50 [40]: 5.88 µM
TGI [40]: 16.7 µM
GI50 [41]: 10.9 µM
TGI [41]: 22.9 µM
GI50 [42]: 4.02 µM
TGI [42]: 12.7 µM
GI50 [43]: 6.53 µM
TGI [43]: 18.9 µM
GI50 [44]: 5.12 µM
TGI [44]: 15.7 µM
GI50 [45]: 4.71 µM
TGI [45]: 17.6 µM
GI50 [46]: 2.4 µM
TGI [46]: 5.85 µM
GI50 [47]: 7.67 µM
TGI [47]: 19.8 µM

CN(C)C(=O)c1cc2cnc(Nc3ccc(N4CCNCC4)cn3)nc2n1C1CCCC1
GI50 [1]: 23.3 µM
TGI [1]: 40.7 µM
GI50 [2]: 9.8 µM
TGI [2]: > 46.4 µM
GI50 [3]: 18.2 µM
TGI [3]: > 63.7 µM
GI50 [4]: 0.866 µM
TGI [4]: 26.3 µM
GI50 [5]: 29.2 µM
TGI [5]: > 100 µM
GI50 [6]: 17.8 µM
TGI [6]: > 80.5 µM
GI50 [7]: 29.2 µM
TGI [7]: 67.6 µM
GI50 [8]: 0.73 µM
TGI [8]: 6.31 µM
GI50 [9]: 8.2 µM
TGI [9]: 63.6 µM
GI50 [10]: 9.02 µM
TGI [10]: > 65.6 µM
GI50 [11]: 11.1 µM
TGI [11]: 31.2 µM
GI50 [12]: 26.2 µM
TGI [12]: 98.8 µM
GI50 [13]: 8.83 µM
TGI [13]: 58.1 µM
GI50 [14]: 30.4 µM
TGI [14]: > 94 µM
GI50 [15]: > 59.3 µM
TGI [15]: > 100 µM
GI50 [16]: 20.2 µM
TGI [16]: 58.9 µM
GI50 [17]: > 67.7 µM
TGI [17]: > 100 µM
GI50 [18]: 24.8 µM
TGI [18]: 46.6 µM
GI50 [19]: 29.5 µM
TGI [19]: 82.2 µM
GI50 [20]: 16.8 µM
TGI [20]: 35.7 µM
GI50 [21]: 23.1 µM
TGI [21]: 57.4 µM
GI50 [22]: 6.77 µM
TGI [22]: 36 µM
GI50 [23]: 30.8 µM
TGI [23]: > 46.4 µM
GI50 [24]: 0.507 µM
TGI [24]: 1.97 µM
GI50 [25]: 23.9 µM
TGI [25]: 45.1 µM
GI50 [26]: 28 µM
TGI [26]: > 97.1 µM
GI50 [27]: 27.3 µM
TGI [27]: > 100 µM
GI50 [28]: 22.2 µM
TGI [28]: 68.2 µM
GI50 [29]: 8.51 µM
TGI [29]: 47.9 µM
GI50 [30]: 16.7 µM
TGI [30]: 43.9 µM
GI50 [31]: 5.81 µM
TGI [31]: 46.7 µM
GI50 [32]: 10.8 µM
TGI [32]: 85.3 µM
GI50 [33]: 33 µM
TGI [33]: > 58.5 µM
GI50 [34]: 25.3 µM
TGI [34]: 61.1 µM
GI50 [35]: 4.09 µM
TGI [35]: 33.7 µM
GI50 [36]: 28.8 µM
TGI [36]: > 75.4 µM
GI50 [37]: 17.5 µM
TGI [37]: 31 µM
GI50 [38]: 10.8 µM
TGI [38]: 29.7 µM
GI50 [39]: 30.1 µM
TGI [39]: > 73 µM
GI50 [40]: 30.2 µM
TGI [40]: > 89.2 µM
GI50 [41]: 37.5 µM
TGI [41]: > 66 µM
GI50 [42]: 2.51 µM
TGI [42]: 35.5 µM
GI50 [43]: 52.2 µM
TGI [43]: > 100 µM
GI50 [44]: 7.64 µM
TGI [44]: 30.1 µM
GI50 [45]: 20.3 µM
TGI [45]: > 73.2 µM
GI50 [46]: 2.39 µM
TGI [46]: > 34.4 µM
GI50 [47]: > 80.2 µM
TGI [47]: > 100 µM

COc1cc2nccc(Oc3ccc(NC(=O)C4(C(=O)Nc5ccc(F)cc5)CC4)cc3)c2cc1OC
GI50 [1]: 3.55 µM
TGI [1]: 11.1 µM
GI50 [2]: 2.78 µM
TGI [2]: 10 µM
GI50 [3]: 2.23 µM
TGI [3]: 6.52 µM
GI50 [4]: 2.71 µM
TGI [4]: 5.24 µM
GI50 [5]: 5.73 µM
TGI [5]: 14 µM
GI50 [6]: 3.8 µM
TGI [6]: 15.4 µM
GI50 [7]: 5.16 µM
TGI [7]: 24.2 µM
GI50 [8]: 1.55 µM
TGI [8]: 3.62 µM
GI50 [9]: 2.62 µM
TGI [9]: 9.96 µM
GI50 [10]: 2.13 µM
TGI [10]: 5.57 µM
GI50 [11]: 2 µM
TGI [11]: 5.44 µM
GI50 [12]: 1.64 µM
TGI [12]: 3.8 µM
GI50 [13]: 1.41 µM
TGI [13]: 4.74 µM
GI50 [14]: 4.01 µM
TGI [14]: 13.1 µM
GI50 [15]: 3.67 µM
TGI [15]: 9.4 µM
GI50 [16]: 4.15 µM
TGI [16]: 12.9 µM
GI50 [17]: 7.3 µM
TGI [17]: > 55.2 µM
GI50 [18]: 3.68 µM
TGI [18]: 12.4 µM
GI50 [19]: 2.79 µM
TGI [19]: 7.77 µM
GI50 [20]: 3.07 µM
TGI [20]: 7.42 µM
GI50 [21]: 1.08 µM
TGI [21]: 6.02 µM
GI50 [22]: 4.47 µM
TGI [22]: 19 µM
GI50 [23]: 5.32 µM
TGI [23]: 17.9 µM
GI50 [24]: 2.95 µM
TGI [24]: 4.49 µM
GI50 [25]: 3.29 µM
TGI [25]: 12.2 µM
GI50 [26]: 2.19 µM
TGI [26]: 6.58 µM
GI50 [27]: 7.66 µM
TGI [27]: 33.7 µM
GI50 [28]: 1.32 µM
TGI [28]: 4.74 µM
GI50 [29]: 3.24 µM
TGI [29]: 9.47 µM
GI50 [30]: 4.85 µM
TGI [30]: 31.5 µM
GI50 [31]: 3.54 µM
TGI [31]: 16 µM
GI50 [32]: 2.96 µM
TGI [32]: 10.7 µM
GI50 [33]: 1.96 µM
TGI [33]: 6.4 µM
GI50 [34]: 1.34 µM
TGI [34]: 6.54 µM
GI50 [35]: 2.48 µM
TGI [35]: 6.76 µM
GI50 [36]: 3.22 µM
TGI [36]: 10.4 µM
GI50 [37]: 2.73 µM
TGI [37]: 5.49 µM
GI50 [38]: 0.295 µM
TGI [38]: 1.07 µM
GI50 [39]: 4.64 µM
TGI [39]: 15.7 µM
GI50 [40]: 2.67 µM
TGI [40]: 7.03 µM
GI50 [41]: 3.01 µM
TGI [41]: 11.3 µM
GI50 [42]: 0.0614 µM
TGI [42]: 14.3 µM
GI50 [43]: 3.94 µM
TGI [43]: 12 µM
GI50 [44]: 2.14 µM
TGI [44]: 4.97 µM
GI50 [45]: 0.372 µM
TGI [45]: 4.71 µM
GI50 [46]: 1.96 µM
TGI [46]: 3.52 µM
GI50 [47]: 4.97 µM
TGI [47]: 15.8 µM
